Results taken from paper PMC10184313, “Inhibition of Thiamine Diphosphate-Dependent Enzymes by Triazole-Based Thiamine Analogues” (ACS Medicinal Chemistry Letters, 2023).
Read-outs that look alike come from different tables or passages of the source.

Columns and labels:
[1] = test system: P. falciparum strain 3D7; assay: Anti-plasmodial activity assay (SYBR-Safe); assay type: cell-based, Plasmodium falciparum
Procedure: Next the effects of the thiamine/ThDP analogues on in vitro proliferation of the 3D7 strain of P. falciparum were determined. […] Parasite proliferation was measured by SYBR-Safe assay of parasite DNA.[11],[15]
(§1) Cell-based assays (Results)
(§2) Anti-plasmodial activity assay. This study used human malaria parasite P. falciparum strain 3D7 (chloroquine-sensitive) and the same strain expressing an extra copy of TPK with a GFP-tag ( PfTPK-GFP) generated as previously described. 9 The intraerythrocytic stage of the parasites were maintained essentially as previously described. 10 Compounds were tested at concentrations up to a highest final […]
(§3) were prepared in dimethyl sulfoxide (DMSO) followed by dilution in RPMI 1640 medium in the absence of thiamine or in the presence of 2.97 µM (or 297 µM) thiamine. The final concentration of DMSO that the parasites were exposed to never exceeded 0.05%. Two-fold serial dilutions were then performed, with each concentration tested in triplicate. The assay was performed as described 11 with some modifications. Experiments were initiated with parasites in the ring-stage, a parasitemia level of 0.5% and a haematocrit of 2%. Chloroquine (0.5 µM) was used as the positive control ( i.e. complete inhibition of parasite proliferation), and parasites maintained in the absence of any inhibitor represented 100% parasite proliferation. The final volume in each well was 200 µL. Plates were incubated at 37 °C, under an atmosphere of 96% nitrogen, 3% carbon dioxide and 1% oxygen. Parasite proliferation was measured by performing SYBR-Safe assay. 12 The concentration at which the compound suppresses […]
Excel and analysed by non-linear regression plot using GraphPad Prism. The data were averaged from three independent experiments. […]

[2] = test system: HFF cells; assay: in vitro; assay type: cell-based, human; conditions: IC50 (thiamine-free) vs HFF cytotoxicity
Procedure: as §1, §2, §3
Excel and analysed by non-linear regression plot using GraphPad Prism. The data were averaged from three independent experiments.
Cytotoxicity assay. This study used HFF cells (human foreskin fibroblasts) as described 13 with some modifications. The HFF cells were seeded in 96-well plates at a density of about 13 x 10^4 cells/mL.
Plates were incubated at 37 °C in a humidified 5% carbon dioxide incubator for 96 h. A sample of the supernatant (150 µL) was then carefully aspirated from each well and discarded. The plates were then stored at -80 °C. SYBR- Safe assay was used. The plates were thawed, SYBR-Safe lysis solution (150 µL) was added to each well and mixed via pipetting to ensure the HFF cells were detached from the plate and lysed. The plates were then processed as described for the anti-plasmodial assay.

[3] = molecular target: T1, Z. mobilis PDC (Zymomonas mobilis subsp. mobilis, UniProt P06672); assay: Z. mobilis PDC inhibitory activity assay (NADH consumption); assay type: biochemical; conditions: for Ki: Z. mobilis PDC, determined according to the KM for ThDP; for IC50: bacterial PDC (Zymomonas mobilis), [ThDP] 10 μM
T1 construct: made in house
T1 sequence (P06672 1-568): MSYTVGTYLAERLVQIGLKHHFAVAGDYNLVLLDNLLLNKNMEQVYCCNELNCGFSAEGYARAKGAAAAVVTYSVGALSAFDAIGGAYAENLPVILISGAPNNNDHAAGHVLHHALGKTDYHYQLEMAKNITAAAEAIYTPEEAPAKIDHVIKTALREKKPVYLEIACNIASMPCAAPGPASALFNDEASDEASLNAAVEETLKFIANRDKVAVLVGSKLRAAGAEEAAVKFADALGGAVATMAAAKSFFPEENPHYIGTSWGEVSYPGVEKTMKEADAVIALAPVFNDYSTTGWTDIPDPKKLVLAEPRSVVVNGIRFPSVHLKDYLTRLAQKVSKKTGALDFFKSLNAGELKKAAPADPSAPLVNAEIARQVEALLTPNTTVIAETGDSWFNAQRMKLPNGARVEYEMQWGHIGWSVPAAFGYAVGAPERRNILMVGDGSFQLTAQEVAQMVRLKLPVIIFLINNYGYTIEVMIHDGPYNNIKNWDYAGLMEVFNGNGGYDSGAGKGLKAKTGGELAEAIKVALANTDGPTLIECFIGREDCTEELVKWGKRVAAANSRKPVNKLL

[4] = test system: P. falciparum 3D7 transfected with an empty plasmid; assay: Anti-plasmodial activity, 3D7 transfected with an empty plasmid; assay type: cell-based; conditions: Plasmodium falciparum, 3D7, read-out: IC50 anti-plasmodial activity, empty plasmid
Procedure: as §1, §2
as §3, with “Plates were incubated at 37 °C, under an atmosphere of 96% nitrogen, 3% carbon dioxide and 1% oxygen.” left out, “assay.” for “assay. 12 The concentration at which the compound suppresses”
(§4) Excel and analysed by non-linear regression plot using GraphPad Prism. […]

[5] = test system: P. falciparum 3D7 expressing PfTPK-GFP; assay: Anti-plasmodial activity, 3D7 expressing PfTPK-GFP; assay type: cell-based; conditions: Plasmodium falciparum, 3D7, read-out: IC50 anti-plasmodial activity, PfTPK-GFP
Procedure: as §1, §2
as §3, with “Plates were incubated at 37 °C, under an atmosphere of 96% nitrogen, 3% carbon dioxide and 1% oxygen.” left out, “assay.” for “assay. 12 The concentration at which the compound suppresses”
as §4

[6] = Plasmodium falciparum, 3D7, 3D7, [Thiamine] = 2.97 μM, read-out: IC50 of Suppression of P. falciparum proliferation, [Thiamine] = 2.97 μM
[7] = Plasmodium falciparum, 3D7, 3D7, [Thiamine] = 297 μM, read-out: IC50 of Suppression of P. falciparum proliferation, [Thiamine] = 297 μM
[8] = Plasmodium falciparum, 3D7, 3D7, thiamine-free medium, read-out: IC50 of Suppression of P. falciparum proliferation, Thiamine-free

| Structure (SMILES) | IC50 [1, 6] [µM] | IC50 [1, 7] [µM] | IC50 [1, 8] [µM] | Selectivity Index [2] | Ki [3] [µM] | IC50 [3] [µM] | IC50 [4] [µM] | IC50 [5] [µM] | fold more potent than 17c at inhibiting proliferation of the parasites [1] [fold] | IC50 ([1]; 3D7, thiamine-free medium, read-out: IC50 of Suppression of P. falciparum proliferation, Thiamine-free) [µM] | fold more active than 24c (anti-plasmodial) ([1]; thiamine-free culture medium) [fold] |
| --- | --- | --- | --- | --- | --- | --- | --- | --- | --- | --- | --- |
| COc1ccc(-c2cn(CCc3cn(Cc4cnc(C)nc4N)nn3)nn2)cc1 [Compound 17a] | 156 ± 13 | 169 ± 11 | 129 ± 9 |  |  |  |  |  |  |  |  |
| Cc1ncc(Cn2cc(CCCCC(=O)NO)nn2)c(N)n1 [Compound 24c] | 3.8 ± 2 | 4 ± 1.8 |  | 14.7 | 0.89 | 25 ± 2 |  |  |  |  |  |
| COc1ccc(-c2cn(CCCc3cn(Cc4cnc(C)nc4N)nn3)nn2)cc1 [Compound 17b] | 78 ± 8 | 82 ± 11 | 51 ± 3 | 1.8 |  |  |  |  |  |  |  |
| Cc1ncc(Cn2cc(CCCn3cc(-c4ccc(F)cc4)nn3)nn2)c(N)n1 [Compound 16b] | > 200 | > 200 | > 200 |  |  |  |  |  |  |  |  |
| COc1ccc(-c2cn(CCCCc3cn(Cc4cnc(C)nc4N)nn3)nn2)cc1 [Compound 17c] | 62 ± 7 | 69 ± 9 | 44 ± 2 | 1.1 |  |  | 38 ± 7 | 44 ± 9 |  |  |  |
| Cc1ncc(Cn2cc(CCCCn3cc(-c4ccc(F)cc4)nn3)nn2)c(N)n1 [Compound 16c] | 70 ± 8 | 89 ± 19 | 67 ± 5 | 0.7 |  |  |  |  |  |  |  |
| Cc1ncc(Cn2cc(CCCC(=O)NO)nn2)c(N)n1 [Compound 24b] | 1.3 ± 0.2 | 1.4 ± 0.4 | 0.9 to 3 | 16.7 | 0.68 | 20 ± 2 | 1.7 ± 0.3 | 2 ± 0.6 | ~50 | 0.9 ± 0.1 | 3 |
| Cc1ncc(Cn2cc(CCn3cc(-c4ccc(F)cc4)nn3)nn2)c(N)n1 [Compound 16a] | > 200 | > 200 | > 200 |  |  |  |  |  |  |  |  |
